Assays:
testicular cells = assay: Test Example 2: testosterone/dihydrotestosterone production in primary testicular cells; type: cell-based, rat; details: 0.5 mM, 1 h pretreatment, then LH or dibutyryl cAMP, 90 min
Description: Dispersed testicular cells were prepared from the testis in mature rats. The testicular cells isolated were cultured for 18 hours in DMEM/Ham's F-12 medium (manufactured by FUJIFILM Wako Pure Chemical Corporation) for culture of testicular stromal cells, Leydig cell. Cells were pretreated with the hot water extract of Cordyceps militaris derived from Samia cynthia ricini (diluted to 1:500), or cordycepin known as one of the physiological activity substances of a vegetative wasp (0.5 mM) for 1 hour and then stimulated with a luteinizing hormone (LH: 10 and 100 ng/mL) or dibutyryl cAMP (0.1 and 0.5 mM). Ninety minutes after the stimulation, the media was collected and the content of testosterone was quantified. In order to confirm the reproducibility, the results of the reexamination performed with the same test content are shown in FIG. 13. In the reexamnination, three independent experiments were performed, and in addition to testosterone, dihydrotestosterone was also quantified.

castrated rat = assay: Test Example 1-1: male menopausal model rat (castrated, testosterone propionate-supplemented); type: in vivo
Description: As the human menopause model, rats were castrated (orchiectomy). An eight-week-old male rat was subjected to orchiectomy under isoflurane anesthesia, and the castrated rat was orally administered the hot water extract of Cordyceps militaris derived from Samia cynthia ricini (RK: 20 mg/0.2 mL distilled water/rat: average body weight at the start of administration: 317 g) together with testosterone propionate (TP: 1 mg/kg, every other day administration) continuously for 12 days. Animals were sacrificed the day after the final treatment, and then the serum, testes, prostate, and seminal vesicle glands were isolated. Some animals to which 0.2 mL distilled water was administered was used as control group.
After the blood collection, the concentrations of testosterone and dihydrotestosterone in the serum were evaluated by the following measurement kit.
The results of the blood testosterone values measured by an EIA kit (manufactured by Cayman) and the results of blood dihydrotestosterone values measured by an ELISA kit (manufactured by Abnova) are shown in FIGS. 1 and 2, respectively.
After the autopsy, changes in the weight of the prostate and the seminal vesicle were evaluated. The change in the weight of the prostate is shown in FIG. 5, and change in the weight of the seminal vesicle is shown in FIG. 6.

[1] = system: prostatic hypertrophy model rat; assay: Test Example 1-2: prostatic hypertrophy model rat (long-term excessive TP); type: in vivo, Wistar rat; details: TP 3 mg/kg, 1 month
Description: In a rat model of menopause Test Example 1-1, since the increase in the prostatic weight by testosterone propionate (TP) was inhibited by the hot water extract of Cordyceps militaris derived from Samia cynthia ricini (RK), it was assumed that RK has inhibitory effects on prostatic hypertrophy. The effect of long-term administration of RK was, therefore, examined using a rat model of prostatic hypertrophy in which an excessive amount of TP is administered to mature rats for a long period of time.
An eight-week-old male Wistar rat was orally administered RK (10 mg/0.2 mL distilled water/rat or 20 mg/0.2 mL distilled water/rat: average body weight at the start of administration: 268 g) together with 3 mg/kg of TP continuously for 1 month. Animals were sacrificed the day after the final treatment, and then the serum, testes, prostate, and seminal vesicle glands were isolated. Some animals to which 0.2 mL distilled water was administered was used as control group.
After the blood collection, the serum levels of testosterone and dihydrotestosterone value were evaluated by the following measurement kit.
The results of the blood testosterone values measured by EIA kit (manufactured by Cayman) and the results of dihydrotestosterone values measured by Elisa kit (manufactured by Abnova) are shown in FIGS. 8 and 9, respectively.
After the necropsy, changes in prostate weight and body weight were evaluated.

Nc1ncnc2c1ncn2[C@@H]1O[C@H](CO)C[C@H]1O [Cordycepin, cordycepin]
stimulatory action on testosterone/dihydrotestosterone levels (testicular cells): No stimulatory action

CCC(=O)O[C@H]1CC[C@H]2[C@@H]3CCC4=CC(=O)CC[C@]4(C)[C@H]3CC[C@]12C [testosterone propionate]
body weight (castrated rat; TP administered to castrated animals, FIG. 7): tended to increase | weight of the prostate (castrated rat; TP group (1 mg/kg every other day) vs castrated, FIG. 5): increased | weight of the seminal vesicle (castrated rat; TP group (1 mg/kg every other day) vs castrated, FIG. 6): increased | serum levels of testosterone ([1]; FIG. 8): increase | serum levels of dihydrotestosterone ([1]; FIG. 9): increase | prostatic weight ([1]; FIG. 10): increased

From US20260014219A1, “COMPOSITION FOR INHIBITING REDUCTION OF TESTOSTERONE AND/OR DIHYDROTESTOSTERONE” (priority 2019, published 2026)
